Experimental data taken from patent US20240246946A1, “MODULATORS OF TREX1” (Constellation Pharmaceuticals, Inc., priority 2021, published 2024).

Tests used:
full length mouse TREX1 = biological target: T1, full length mouse TREX1 (Mus musculus, UniProt Q91XB0); assay: mTREX1 Biochemical Assay (fluorescence, dsDNA substrate degradation); conditions: biochemical, read-out: mTREX1 IC50
T1 construct: N-terminally His-Tev tagged full length mouse TREX1; made in house; host or cells: E. coli
T1 sequence (Q91XB0 1-314): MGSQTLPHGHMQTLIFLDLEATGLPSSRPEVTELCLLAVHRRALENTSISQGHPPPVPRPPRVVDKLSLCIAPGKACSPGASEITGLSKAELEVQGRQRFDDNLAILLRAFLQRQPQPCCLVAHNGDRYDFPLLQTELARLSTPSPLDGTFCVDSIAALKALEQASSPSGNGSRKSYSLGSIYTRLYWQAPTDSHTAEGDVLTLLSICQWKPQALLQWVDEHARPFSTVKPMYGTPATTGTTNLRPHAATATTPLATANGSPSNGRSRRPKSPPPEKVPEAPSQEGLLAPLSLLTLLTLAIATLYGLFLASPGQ
Method: (§1) Degradation of the dsDNA liberates free fluorophore to produce a fluorescent signal. Specifically, 7.5 μL of N-terminally His-Tev tagged full length mouse TREX1 (expressed in E. coli and purified in house) in reaction buffer (50 mM Tris, 150 mM NaCl, 2 mM DTT, 0.1 mg/mL BSA, 0.01% (w/v) Tween-20, 5 mM MgCl2, pH 7.4) was added to a 384-well Black ProxiPlate Plus (PerkinElmer) which already contained compound (150 nL) at varying concentrations as a 10 point dose-response in DMSO. The plate was incubated at 25° C. for 4 hours. Reactions were initiated by adding 7.5 μL of dsDNA substrate (Strand A: 5′ TEX615/GCT AGG CAG 3′; Strand B: 5′ CTG CCT AGC/IAbRQSp (Integrated DNA Technologies)) in reaction buffer. Final concentrations were 6 pM TREX1, 60 nM dsDNA substrate in reaction buffer with 1.0% DMSO (v/v). After 18 hours at 25° C., reactions were quenched by the addition of 2 μL of 500 mM EDTA.

full length human TREX1 = biological target: T2, full length human TREX1 (Homo sapiens, UniProt Q9NSU2); assay: hTREX1 Biochemical Assay (fluorescence, dsDNA substrate degradation); conditions: biochemical, read-out: hTREX1 IC50
T2 construct: N-terminally His-Tev tagged full length human TREX1; made in house; host or cells: E. coli
T2 sequence (Q9NSU2 1-314): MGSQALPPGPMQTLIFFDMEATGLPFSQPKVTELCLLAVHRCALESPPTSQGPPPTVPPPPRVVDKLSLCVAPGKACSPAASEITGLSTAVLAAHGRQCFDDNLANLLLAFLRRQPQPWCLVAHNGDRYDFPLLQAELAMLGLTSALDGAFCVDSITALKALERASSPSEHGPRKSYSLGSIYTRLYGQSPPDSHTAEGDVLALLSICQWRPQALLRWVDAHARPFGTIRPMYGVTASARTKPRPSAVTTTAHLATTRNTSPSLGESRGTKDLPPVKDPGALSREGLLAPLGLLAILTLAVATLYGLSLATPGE
Method: as §1, with “length human” for “length mouse”, “were 4” for “were 6”

SMILES | IC50 (full length mouse TREX1) [nM] | IC50 (full length human TREX1) [nM]
CC(c1nc(C(=O)Nc2cnoc2)c(O)c(=O)n1C)C(c1cnn(C)c1)c1ccc(C(F)(F)F)cc1C#N (single isomer, unassigned) [Example 30 D1E2] | > 10 | > 10
CC(c1nc(C(=O)Nc2cnoc2)c(O)c(=O)n1C)C(c1cnn(C)c1)c1ccc(C(F)(F)F)cc1C#N (single isomer, unassigned) [Example 30 D2E1] | > 10 | > 10
CC(c1nc(C(=O)Nc2cnoc2)c(O)c(=O)n1C)C(c1cnn(C)c1)c1ccc(C(F)(F)F)cc1C#N (single isomer, unassigned) [Example 30 D2E2] | > 10 | > 10
CC(c1nc(C(=O)Nc2cnoc2)c(O)c(=O)n1C)C(c1cnn(CCN2CCNCC2)c1)c1ccccc1C#N (single isomer, unassigned) [Example 31 D1E2] | > 10 | > 10
CC(c1nc(C(=O)Nc2cnoc2)c(O)c(=O)n1C)C(c1cnn(CCN2CCNCC2)c1)c1ccccc1C#N (single isomer, unassigned) [Example 31 D2E1] | > 10 | > 10
CC(c1nc(C(=O)Nc2cnoc2)c(O)c(=O)n1C)C(c1cnn(CCN2CCNCC2)c1)c1ccccc1C#N (single isomer, unassigned) [Example 31 D2E2] | > 10 | > 10
CC(c1nc(C(=O)Nc2cnoc2)c(O)c(=O)n1C)C(c1cnn(CCN2CCN(C)CC2)c1)c1ccccc1C#N (single isomer, unassigned) [Example 32 D1E2] | > 10 | 1 to 10
CC(c1nc(C(=O)Nc2cnoc2)c(O)c(=O)n1C)C(c1cnn(CCN2CCN(C)CC2)c1)c1ccccc1C#N (single isomer, unassigned) [Example 32 D2E2] | > 10 | > 10
CC(c1nc(C(=O)Nc2cnoc2)c(O)c(=O)n1C)C(c1cnn(CCN(C)C)c1)c1ccccc1C#N (single isomer, unassigned) [Example 33 D1E2] | > 10 | > 10
CC(c1nc(C(=O)Nc2cnoc2)c(O)c(=O)n1C)C(c1cnn(CCN(C)C)c1)c1ccccc1C#N (single isomer, unassigned) [Example 33 D2E1] | > 10 | > 10
CC(c1nc(C(=O)Nc2cnoc2)c(O)c(=O)n1C)C(c1cnn(CCN(C)C)c1)c1ccccc1C#N (single isomer, unassigned) [Example 33 D2E2] | > 10 | > 10
CC(c1nc(C(=O)Nc2cnoc2)c(O)c(=O)n1C)C(c1cnn(CCCN(C)C)c1)c1ccccc1C#N (single isomer, unassigned) [Example 34 D1E2] | > 10 | > 10
CC(c1nc(C(=O)Nc2cnoc2)c(O)c(=O)n1C)C(c1cnn(CCCN(C)C)c1)c1ccccc1C#N (single isomer, unassigned) [Example 34 D2E2] | > 10 | > 10
CC(c1nc(C(=O)Nc2cnoc2)c(O)c(=O)n1C)C(c1cnn(CCO)c1)c1ccccc1C#N (single isomer, unassigned) [Example 35 D1E2] | > 10 | > 10
CC(c1nc(C(=O)Nc2cnoc2)c(O)c(=O)n1C)C(c1cnn(CCO)c1)c1ccccc1C#N (single isomer, unassigned) [Example 35 D2E1] | > 10 | 1 to 10
CC(c1nc(C(=O)Nc2cnoc2)c(O)c(=O)n1C)C(c1cnn(CCO)c1)c1ccccc1C#N (single isomer, unassigned) [Example 35 D2E2] | > 10 | > 10
CC(c1nc(C(=O)Nc2cnoc2)c(O)c(=O)n1C)C(c1cnn(CC(C)(C)O)c1)c1ccccc1C#N (single isomer, unassigned) [Example 36 D1E2] | > 10 | > 10

SMILES | IC50 (full length mouse TREX1) [nM] | IC50 (full length human TREX1) [nM]
CC(c1nc(C(=O)Nc2cnoc2)c(O)c(=O)n1C)C(c1cnn(CC(C)(C)O)c1)c1ccccc1C#N (single isomer, unassigned) [Example 36 D2E2] | > 10 | > 10
COC(C)(C)Cn1cc(C(c2ccccc2C#N)C(C)c2nc(C(=O)Nc3cnoc3)c(O)c(=O)n2C)cn1 (single isomer, unassigned) [Example 37 D1E2] | > 10 | > 10
COC(C)(C)Cn1cc(C(c2ccccc2C#N)C(C)c2nc(C(=O)Nc3cnoc3)c(O)c(=O)n2C)cn1 (single isomer, unassigned) [Example 37 D2E1] | > 10 | > 10
CC(c1nc(C(=O)Nc2cnoc2)c(O)c(=O)n1C)C(c1cnn(C(F)F)c1)c1ccccc1C#N (single isomer, unassigned) [Example 38 D1E2] | > 10 | > 10
CC(c1nc(C(=O)Nc2cnoc2)c(O)c(=O)n1C)C(c1cnn(C(F)F)c1)c1ccccc1C#N (single isomer, unassigned) [Example 38 D2E1] | > 10 | > 10
CC(c1nc(C(=O)Nc2cnoc2)c(O)c(=O)n1C)C(c1cn(C)cn1)c1ccccc1C#N (single isomer, unassigned) [Example 39 D1E1] | > 10 | > 10
CC(c1nc(C(=O)Nc2cnoc2)c(O)c(=O)n1C)C(c1cn(C)cn1)c1ccccc1C#N (single isomer, unassigned) [Example 39 D1E2] | > 10 | > 10
CC(c1nc(C(=O)Nc2cnoc2)c(O)c(=O)n1C)C(c1cn(C)cn1)c1ccccc1C#N (single isomer, unassigned) [Example 39 D2E1] | > 10 | > 10
Cn1cc(C(c2ccccc2C#N)C(c2nc(C(=O)Nc3cnoc3)c(O)c(=O)n2C)C(F)(F)F)cn1 (single isomer, unassigned) [Example 40 D1E1] | > 10 | > 10
Cn1cc(C(c2ccccc2C#N)C(c2nc(C(=O)Nc3cnoc3)c(O)c(=O)n2C)C(F)(F)F)cn1 (single isomer, unassigned) [Example 40 D2E1] | > 10 | > 10
Cc1nn(C)cc1C(c1ccccc1C#N)C(c1nc(C(=O)Nc2cnoc2)c(O)c(=O)n1C)C(F)(F)F (single isomer, unassigned) [Example 41 D1E1] | > 10 | > 10
Cc1nn(C)cc1C(c1ccccc1C#N)C(c1nc(C(=O)Nc2cnoc2)c(O)c(=O)n1C)C(F)(F)F (single isomer, unassigned) [Example 41 D2E1] | > 10 | 1 to 10
Cc1nn(C)cc1C(c1ccccc1C#N)C(c1nc(C(=O)Nc2cnoc2)c(O)c(=O)n1C)C(F)(F)F (single isomer, unassigned) [Example 41 D2E2] | > 10 | > 10
Cc1nn(C)cc1C(c1cc(F)ccc1C#N)C(c1nc(C(=O)Nc2cnoc2)c(O)c(=O)n1C)C(F)(F)F (single isomer, unassigned) [Example 42 D1E1] | > 10 | > 10
Cc1nn(C)cc1C(c1cc(F)ccc1C#N)C(c1nc(C(=O)Nc2cnoc2)c(O)c(=O)n1C)C(F)(F)F (single isomer, unassigned) [Example 42 D2E2] | > 10 | > 10
Cc1ncc(C(c2ccccc2Cl)C(C)c2nc(C(=O)Nc3cnoc3)c(O)c(=O)n2C)cn1 (single isomer, unassigned) [Example 44 D2E1] | > 10 | > 10
Cc1ccn(C(c2ccccc2Cl)C(C)c2nc(C(=O)Nc3cnoc3)c(O)c(=O)n2C)n1 (single isomer, unassigned) [Example 49 D1E1] | 1 to 10 | 1 to 10
